According to patent US9249123B2, “Pyridinones/pyrazinones, method of making, and method of use thereof” (Genentech, Inc., priority 2010, dated 2016):

Experiments:
[1] = biological target: full length human wildtype Btk (Homo sapiens (Human), UniProt Q06187); experiment: Biochemical Btk Assay
Method: Formula I compounds were tested by a standard biochemical Btk Kinase Assay (Example 901). A generalized procedure for a standard biochemical Btk Kinase Assay that can be used to test Formula I compounds is as follows. […] A master mix plus Btk enzyme is prepared containing 1× Cell Signaling kinase buffer, 0.5 μM PTK Biotinylated peptide substrate 2, 0.01% BSA, and 100 ng/well (0.06 mU/well) Btk enzyme. Btk enzyme is prepared as follows: full length human wildtype Btk (accession number NM-000061) with a C-terminal V5 and 6×His tag was subcloned into pFastBac vector for making baculovirus carrying this epitope-tagged Btk. Generation of baculovirus is done based on Invitrogen's instructions detailed in its published protocol “Bac-to-Bac Baculovirus Expression Systems” (Cat. Nos. 10359-016 and 10608-016). […] The Btk protein is then purified to homogeneity using Ni-NTA column. The purity of the final protein preparation is greater than 95% based on the sensitive Sypro-Ruby staining. A solution of 200 μM ATP is prepared in water and adjusted to pH7.4 with 1N NaOH. A quantity of 1.25 μL of compounds in 5% DMSO is transferred to a 96-well ½ area Costar polystyrene plate. Compounds are tested singly and with an 11-point dose-responsive curve (starting concentration is 10 μM; 1:2 dilution). A quantity of 18.75 μL of master mix minus enzyme (as a negative control) and master mix plus enzyme is transferred to appropriate wells in 96-well ½ area costar polystyrene plate. 5 μL of 200 μM ATP is added to that mixture in the 96-well ½ area Costar polystyrene plate for final ATP concentration of 40 μM. The reaction is allowed to incubate for 1 hour at room temperature. The reaction is stopped with Perkin Elmer 1× detection buffer containing 30 mM EDTA, 20 nM SA-APC, and 1 nM PT66 Ab. The plate is read using time-resolved fluorescence with a Perkin Elmer Envision using excitation filter 330 nm, emission filter 665 nm, and 2nd emission filter 615 nm. IC50 values are subsequently calculated. Alternatively, the Lanthascreen assay can be used to evaluate Btk activity through quantification of its phosphorylated peptide product. The FRET (Fluorescence Resonance Energy Transfer) that occurs between the fluorescein on the peptide product and the terbium on the detection antibody decreases with the addition of inhibitors of Btk that reduce the phosphorylation of the peptide. […] The reaction is initiated by the addition of ATP to 25 uM (Km of ATP). After incubation for 60 minutes at room temperature, the reaction is stopped by the addition of a final concentration of 2 nM Tb-PY20 detection antibody in 60 mM EDTA for 30 minutes at room temperature. Detection is determined on a Perkin Elmer Envision with 340 nm excitation and emission at 495 nm and 520 nm. Exemplary Btk inhibition IC50 values are in Tables and 2.

[2] = tested on: CD86 surface expression on CD19+/7AAD- total mouse splenocytes stimulated with IgM; experiment: CD86 Inhibition Assay; assay type: cell-based; conditions: Splenocyte; Balb/c mouse splenocytes, IgM stimulation, 24 hr
Method: A CD86 Inhibition assay can be conducted on Formula I compounds for the inhibition of B cell activity using total mouse splenocytes purified from spleens of 8-16 week old Balb/c mice (Example 905).
A generalized procedure for a standard assay for the inhibition of B cell activity that can be used to test Formula I compounds is as follows. Total mouse splenocytes are purified from spleens of 8-16 week old Balb/c mice by red blood cell lysis (BD Pharmingen #555899). Testing compounds are diluted to 0.5% DMSO and incubated with 1.25×10^6 splenocytes in a final volume of 200 μl in flat clear bottom plates (Falcon 353072) for 60 min at 37° C. Cells are then stimulated with the addition of 15 μg/ml IgM (Jackson ImmunoResearch 115-006-020), and incubated for 24 hr at 37° C., 5% CO2. Following the 24 hr incubation, cells are transferred to conical bottom clear 96-well plates and pelleted by centrifugation at 1200×g×5 min. Cells are preblocked by CD16/CD32 (BD Pharmingen #553142), followed by triple staining with CD19-FITC (BD Pharmingen #553785), CD86-PE (BD Pharmingen #553692), and 7AAD (BD Pharmingen #51-68981E). Cells are sorted on a BD FACSCalibur and gated on the CD19^+/7AAD^− population. The levels of CD86 surface expression on the gated population is measured versus test compound concentration. Exemplary results are in Table 3.

[3] = tested on: production of CD69 by B lymphocytes in human whole blood activated with goat F(ab')2 anti-human IgM; experiment: CD69 Whole Blood Assay; assay type: cell-based; conditions: Lymphocyte, anti-IgM stimulation, 20 hours, CD69 positive of CD20 positive cells
Source text: A CD69 Whole Blood Assay can be conducted on Formula I compounds to determine the ability of compounds to inhibit the production of CD69 by B lymphocytes in human whole blood activated by crosslinking surface IgM with goat F(ab′)2 anti-human IgM (Example 907).
Human blood is obtained from healthy volunteers, with the following restrictions: 1 week drug-free, non-smokers. Blood (approximately 20 mls to test 8 compounds) is collected by venipuncture into Vacutainer® (Becton, Dickinson and Co.) tubes with sodium heparin.
Solutions of Formula I compounds at 10 mM in DMSO are diluted 1:10 in 100% DMSO, then are diluted by three-fold serial dilutions in 100% DMSO for a ten point dose-response curve. The compounds are further diluted 1:10 in PBS and then an aliquot of 5.5 μl of each compound is added in duplicate to a 2 ml 96-well plate; 5.5 μl of 10% DMSO in PBS is added as control and no-stimulus wells. Human whole blood—HWB (100 μl) is added to each well. After mixing the plates are incubated at 37° C., 5% CO2, 100% humidity for 30 minutes. Goat F(ab′)2 anti-human IgM (10 μl of a 500 μg/ml solution, 50 μg/ml final) is added to each well (except the no-stimulus wells) with mixing and the plates are incubated for an additional 20 hours. At the end of the 20 hour incubation, samples are incubated with fluorescent labeled antibodies for 30 minutes, at 37° C., 5% CO2, 100% humidity. Include induced control, unstained and single stains for compensation adjustments and initial voltage settings. Samples are then lysed with PharM Lyse™ (BD Biosciences Pharmingen) according to the manufacturer's instructions. Samples are then transferred to a 96 well plate suitable to be run on the BD Biosciences HTS 96 well system on the LSRII machine. Data acquired and Mean Fluorescence Intensity values were obtained using BD Biosciences DIVA Software. Results are initially analyzed by FACS analysis software (Flow Jo). […] The IC50 values are calculated by Prism version 5, using a nonlinear regression curve fit.

Chain of full length human wildtype Btk (Q06187 whole entry): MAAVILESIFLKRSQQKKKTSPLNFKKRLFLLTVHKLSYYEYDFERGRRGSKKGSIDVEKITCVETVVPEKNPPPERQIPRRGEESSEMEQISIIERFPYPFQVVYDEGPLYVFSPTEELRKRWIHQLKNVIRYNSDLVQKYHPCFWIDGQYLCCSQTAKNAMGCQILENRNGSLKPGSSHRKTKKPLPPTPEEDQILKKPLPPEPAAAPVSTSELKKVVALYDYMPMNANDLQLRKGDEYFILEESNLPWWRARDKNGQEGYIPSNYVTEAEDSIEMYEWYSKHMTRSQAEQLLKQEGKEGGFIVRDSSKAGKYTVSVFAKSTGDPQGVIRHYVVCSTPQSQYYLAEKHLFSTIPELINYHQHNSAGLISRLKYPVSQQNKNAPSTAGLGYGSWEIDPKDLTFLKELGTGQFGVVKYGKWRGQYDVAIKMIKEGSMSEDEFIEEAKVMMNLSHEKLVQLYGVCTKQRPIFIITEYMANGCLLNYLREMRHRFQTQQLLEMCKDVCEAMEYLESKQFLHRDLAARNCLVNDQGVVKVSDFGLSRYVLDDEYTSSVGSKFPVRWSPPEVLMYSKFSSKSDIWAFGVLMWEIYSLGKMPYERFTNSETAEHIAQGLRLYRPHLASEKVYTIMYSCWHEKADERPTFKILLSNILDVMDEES

Row | SMILES | IC50 [1] | EC50 [2] | IC50 [3]
1 | Cc1c(-c2cn(C)c(=O)c(Nc3ccc(C4NCCN(C)C4=O)cc3)n2)cccc1N1Cc2cc(C(C)(C)C)sc2C1=O (stereo not drawn) [Compound 102, 2-tert-butyl-5-(2-methyl-3-(4-methyl-6-(4-(4-methyl-3-oxopiperazin-2-yl)phenylamino)-5-oxo-4,5-dihydro-pyrazin-2-yl)phenyl)-4H-thieno[2,3-c]pyrrol-6(5H)-one] | 11.5 nM |  | 
2 | Cc1c(-c2cn(C)c(=O)c(Nc3ccc(C4C(=O)NCCN4C)cc3)n2)cccc1N1Cc2cc(C(C)(C)C)sc2C1=O (stereo not drawn) [Compound 104, 2-tert-butyl-5-(2-methyl-3-(4-methyl-6-(4-(1-methyl-3-oxopiperazin-2-yl)phenylamino)-5-oxo-4,5-dihydropyrazin-2-yl)phenyl)-4H-thieno[2,3-c]pyrrol-6(5H)-one] | 95 nM |  | 
3 | Cn1cc(-c2cccc(N3Cc4cc(C(C)(C)C)ccc4C3=O)c2CO)cc(Nc2ccncn2)c1=O [Compound 107, 5-tert-butyl-2-(2-(hydroxymethyl)-3-(1-methyl-6-oxo-5-(pyrimidin-4-ylamino)-1,6-dihydropyridin-3-yl)phenyl)isoindolin-1-one] |  | 74 nM | 605 nM
4 | Cn1cc(-c2cccc(N3Cc4cc(C(C)(C)C)ccc4C3=O)c2CO)cc(Nc2cc(C3CC3)n[nH]2)c1=O [Compound 110, 5-tert-butyl-2-(3-(5-(3-cyclopropyl-1H-pyrazol-5-ylamino)-1-methyl-6-oxo-1,6-dihydropyridin-3-yl)-2-(hydroxymethyl)phenyl) isoindolin-1-one] |  |  | 1100 nM
5 | Cn1cc(-c2cccc(N3Cc4cc(C(C)(C)C)ccc4C3=O)c2CO)cc(Nc2ccn(CCO)n2)c1=O [Compound 119] |  |  | 157 nM
6 | CN1CCN(c2ccc(Nc3cc(-c4cccc(N5Cc6cc(C(C)(C)C)ccc6C5=O)c4CO)cn(C)c3=O)nn2)CC1 [Compound 122, 5-tert-butyl-2-(2-(hydroxymethyl)-3-(1-methyl-5-(6-(4-methylpiperazin-1-yl)pyridazin-3-ylamino)-6-oxo-1,6-dihydropyridin-3-yl)phenyl)isoindolin-1-one] |  |  | 185 nM
7 | CN1CCN(C)[C@@H](c2ccc(Nc3nc(-c4ccc(F)c(N5Cc6cc(C(C)(C)C)sc6C5=O)c4F)cn(C)c3=O)cc2)C1=O [Compound 130, 5-(3-{2-tert-butyl-6-oxo-4H,5H,6H-thieno[2,3-c]pyrrol-5-yl}-2,4-difluorophenyl)-3-({4-[(2S)-1,4-dimethyl-3-oxopiperazin-2-yl]phenyl]amino)-1-methyl-1,2-dihydropyrazin-2-one] | 33.7 nM |  | 
8 | CN1CCN(C)[C@@H](c2ccc(Nc3nc(-c4ccc(F)c(N5Cc6cc(C(C)(C)C)sc6C5=O)c4)cn(C)c3=O)cc2)C1=O [Compound 131, 5-(3-{2-tert-butyl-6-oxo-4H,5H,6H-thieno[2,3-c]pyrrol-5-yl}-4-fluorophenyl)-3-({4-[(2S)-1,4-dimethyl-3-oxopiperazin-2-yl]phenyl}amino)-1-methyl-1,2-dihydropyrazin-2-one] | 47.4 nM |  | 
9 | Cc1c(-c2cn(C)c(=O)c(Nc3ccc(C4C(=O)NCCN4C)cc3)n2)cccc1N1Cc2cc(C(C)(C)C)sc2C1=O (stereo not drawn) [Compound 134, 5-(3-{2-tert-butyl-6-oxo-4H,5H,6H-thieno[2,3-c]pyrrol-5-yl}-2-methylphenyl)-1-methyl-3-{[4-(1-methyl-3-oxopiperazin-2-yl)phenyl]amino}-1,2-dihydropyrazin-2-one] | 24.7 nM | 1900 nM | 
10 | Cn1cc(-c2cccc(N3Cc4cc(C(C)(C)C)sc4C3=O)c2CO)cc(Nc2ccn(CCO)n2)c1=O [Compound 139, 5-(3-{2-tert-butyl-6-oxo-4H,5H,6H-thieno[2,3-c]pyrrol-5-yl}-2-(hydroxymethyl)phenyl)-3-{[1-(2-hydroxyethyl)-1H-pyrazol-3-yl]amino}-1-methyl-1,2-dihydropyridin-2-one] |  |  | 42.6 nM
11 | Cn1cc(-c2cccc(N3Cc4cc(C(C)(C)C)sc4C3=O)c2CO)cc(Nc2ccc(N3CCOCC3)cn2)c1=O [Compound 151, 5-(3-{2-tert-butyl-6-oxo-4H,5H,6H-thieno[2,3-c]pyrrol-5-yl}-2-(hydroxymethyl)phenyl)-1-methyl-3-{[5-(morpholin-4-yl)pyridin-2-yl]amino}-1,2-dihydropyridin-2-one] |  |  | 112 nM
12 | Cn1cc(-c2cccc(N3Cc4cc(C(C)(C)C)sc4C3=O)c2CO)nc(Nc2ccc(N3CCOCC3)cc2)c1=O [Compound 160, 5-(3-{2-tert-butyl-6-oxo-4H,5H,6H-thieno[2,3-c]pyrrol-5-yl}-2-(hydroxymethyl)phenyl)-1-methyl-3-{[4-(morpholin-4-yl)phenyl]amino}-1,2-dihydropyrazin-2-one] |  | 153 nM | 116 nM
